{
  "source": "patent US5232684A",
  "about": "“Labelled resiniferatoxin, compositions thereof, and methods for using the same” (priority 1990, dated 1993)",
  "key": {"[1]": {"tested_on": "rat brain preoptic region", "test": "[^3H]RTX binding to rat brain preoptic region"}, "[2]": {"tested_on": "capsaicin receptor (porcine DRG subcellular fractions)", "format": "binding, pig", "method": "Subcellular fractions are prepared by a modification of the method of Bastiaensen et al. (Bastiaensen, E., Miserez, B. and De Potter, W., Subcellular fractionation of bovine ganglion stellatum: co-storage of noradrenaline, Met-enkephalin and neuropeptide Y in large `dense-cored` vesicles, Brain Res., 442 (1988) 124-130. ) Briefly: DRG are dissected free from capsule, cut into small pieces with scissors, and then homogenized with a teflon pestle (20 strokes) in ice-cold 0.25 M sucrose/ 20 mM Tris-Cl (pH 7.4) buffer. The homogenate is filtered over surgical gauze; it is then centrifuged for 10 min at 2000 gmax, giving a pellet P1, and again at 10 000 gmax for 15 min giving a pellet P2. The P1 and P2 pellets are saved as nuclear and mitochondrial fractions for binding studies. […]\n(§1) The binding assays are carried out in a volume of 250 ul, containing assay buffer (same as the disrupting buffer but omitting DTT and EGTA and including 0.75 mM CaCl2), 26-30 ug of membrane protein and 0.25 mg/ml bovine serum albumin. […] An aliquot of 50 ul of the mixture is removed to determine total radioactivity. The filters are washed with 100 ml of ice-cold 20 mM Tris-Cl, pH 7 4, containing 0.1 mg/ml bovine serum albumin, and the bound radioactivity is determined by scintillation counting. Non-specific binding is determined in the presence of 100-1000 nM non-radioactive RTX. […]"}, "[3]": {"molecular_target": "T1, capsaicin receptor (dorsal horn from pig spinal cord) (Sus scrofa, UniProt F1RLJ0)", "T1 construct": "membrane preparations from dissected dorsal horn from pig spinal cord; from tissue; host or cells: dissected dorsal horn of pig spinal cord", "T1 sequence (F1RLJ0 1-841)": "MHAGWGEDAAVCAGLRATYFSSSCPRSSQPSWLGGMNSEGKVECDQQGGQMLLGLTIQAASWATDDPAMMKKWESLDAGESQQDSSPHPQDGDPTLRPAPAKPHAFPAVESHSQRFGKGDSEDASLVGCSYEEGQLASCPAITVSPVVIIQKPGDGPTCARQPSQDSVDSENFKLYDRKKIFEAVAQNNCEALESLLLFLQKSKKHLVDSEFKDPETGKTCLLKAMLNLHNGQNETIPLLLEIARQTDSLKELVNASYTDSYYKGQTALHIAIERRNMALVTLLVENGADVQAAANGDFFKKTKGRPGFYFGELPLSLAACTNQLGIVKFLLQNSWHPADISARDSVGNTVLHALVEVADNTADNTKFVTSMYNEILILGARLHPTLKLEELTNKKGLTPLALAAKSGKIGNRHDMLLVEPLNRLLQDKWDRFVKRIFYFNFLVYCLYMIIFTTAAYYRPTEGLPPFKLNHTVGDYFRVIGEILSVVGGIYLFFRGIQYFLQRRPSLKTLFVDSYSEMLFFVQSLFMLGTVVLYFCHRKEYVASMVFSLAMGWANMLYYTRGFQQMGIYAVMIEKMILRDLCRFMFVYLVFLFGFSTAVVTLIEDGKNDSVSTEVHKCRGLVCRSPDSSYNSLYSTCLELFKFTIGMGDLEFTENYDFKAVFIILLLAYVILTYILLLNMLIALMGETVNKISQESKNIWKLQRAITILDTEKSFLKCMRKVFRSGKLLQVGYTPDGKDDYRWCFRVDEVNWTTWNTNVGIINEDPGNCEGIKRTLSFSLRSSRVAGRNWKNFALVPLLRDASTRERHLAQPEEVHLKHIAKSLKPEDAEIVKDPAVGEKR", "test": "Binding to membrane preparations from dissected dorsal horn of pig spinal cord", "method": "The binding assays are carried out in a volume of 250 ul, containing assay buffer (same as the disrupting buffer but omitting DTT and EGTA and including 0.75 mM CaCl2), 26-30 ug of membrane protein and 0.25 mg/ml bovine serum albumin. […] Tubes are kept on ice while the additions are made. The assay mixture is incubated for 10 min at 37° C.; it is then cooled on ice. 150 ul of the mixture is pipetted onto Whatman GF/C or GF/F glass fiber filters presoaked with 10 mg/ml bovine serum albumin in 20 mM Tris-Cl (pH 7.4) and filtered immediately. An aliquot of 50 ul of the mixture is removed to determine total radioactivity. The filters are washed with 100 ml of ice-cold 20 mM Tris-Cl, pH 7 4, containing 0.1 mg/ml bovine serum albumin, and the bound radioactivity is determined by scintillation counting. Non-specific binding is determined in the presence of 100-1000 nM non-radioactive RTX. Under these conditions approximately 30% of the non-specific binding is due to sticking of [^3 H]RTX to the filters. The remainder presumably reflects partitioning into the lipid phase of the membranes, as had been observed previously for typical phorbol esters (Driedger, P.E. and Blumberg, P.M., Specific binding of phorbol ester tumor promoters, Proc. Natl. Acad. Sci. U.S.A., 77 (1980) 567-571). […]\nAlternatively, binding can be measured to membrane preparations from dissected dorsal horn from pig spinal cord. […]"}, "substantia nigra": {"tested_on": "substantia nigra", "test": "[^3H]RTX binding to rat substantia nigra", "method": "Membrane preparations are obtained from the DRG and Gasser ganglia of female Sprague-Dawley rats (250-300 g); animals are sacrificed by decapitation under ether anesthesia, the ganglia removed and collected into ice-cold disrupting buffer (5 mM KCl, 5.8 mM NaCl, 2 mM MgCl2, 12 mM glucose, 137 mM sucrose, 10 mM HEPES, 5 mM DTT, 2 mM EGTA, pH 7.4). After homogenization with the aid of a Polytron tissue homogenizer, samples are filtered over surgical gauze and then washed twice with the same buffer and stored at -70° C. […]\nas §1"}, "striatum": {"tested_on": "striatum", "test": "[^3H]RTX binding to rat striatum"}, "[4]": {"molecular_target": "T2, capsaicin receptor (chicken DRG) (Gallus gallus, UniProt Q8QFN9)", "T2 construct": "homotetramer", "T2 sequence (Q8QFN9 1-843)": "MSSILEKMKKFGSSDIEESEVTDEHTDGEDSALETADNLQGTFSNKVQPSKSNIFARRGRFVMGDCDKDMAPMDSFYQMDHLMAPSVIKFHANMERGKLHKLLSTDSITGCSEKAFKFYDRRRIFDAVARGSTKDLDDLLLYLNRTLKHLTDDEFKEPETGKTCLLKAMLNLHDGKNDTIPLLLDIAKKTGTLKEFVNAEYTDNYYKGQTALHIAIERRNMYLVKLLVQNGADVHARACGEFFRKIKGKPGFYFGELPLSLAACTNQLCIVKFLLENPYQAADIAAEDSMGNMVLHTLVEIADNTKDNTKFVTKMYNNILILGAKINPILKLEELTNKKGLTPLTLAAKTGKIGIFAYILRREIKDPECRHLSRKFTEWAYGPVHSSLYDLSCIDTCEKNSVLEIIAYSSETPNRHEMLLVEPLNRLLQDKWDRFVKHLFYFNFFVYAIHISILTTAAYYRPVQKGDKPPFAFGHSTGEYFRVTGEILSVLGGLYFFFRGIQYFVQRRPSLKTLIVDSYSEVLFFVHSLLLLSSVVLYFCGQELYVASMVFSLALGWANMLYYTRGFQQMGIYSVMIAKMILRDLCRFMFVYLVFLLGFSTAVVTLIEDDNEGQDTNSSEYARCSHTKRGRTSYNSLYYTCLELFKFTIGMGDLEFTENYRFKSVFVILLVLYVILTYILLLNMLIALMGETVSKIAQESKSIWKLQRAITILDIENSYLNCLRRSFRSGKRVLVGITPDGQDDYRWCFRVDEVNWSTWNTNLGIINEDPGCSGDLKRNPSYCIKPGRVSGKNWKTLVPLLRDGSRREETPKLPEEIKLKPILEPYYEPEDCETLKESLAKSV", "test": "[^3H]RTX binding to chicken DRG membranes"}},
  "data": [
    {"smiles": "C=C(C)[C@]12C[C@@H](C)[C@@]34O[C@](Cc5ccccc5)(O[C@@H]1[C@@H]3C=C(COC(=O)Cc1ccc(O)c(OC)c1)C[C@]1(O)C(=O)C(C)=C[C@@H]41)O2", "note": "[[^3 H]RTX, [^3 H]resiniferatoxin]", "values": [
      {"measurement": "detection of [^3H]RTX binding", "setting": "[1]", "value": "very difficult"},
      {"measurement": "specific [^3H]RTX binding, microsomal/plasma membrane fraction over mitochondrial fraction", "setting": "[2]; fixed 300 pM [^3H]RTX, preliminary", "value": 5, "unit": "fold"},
      {"measurement": "specific [^3H]RTX binding in the nuclear pellet", "setting": "[2]; nuclear pellet", "value": "No specific [^3 H]RTX binding"},
      {"measurement": "% specific binding", "setting": "[3]", "value": 90, "unit": "%"},
      {"measurement": "Kd", "setting": "[3]", "value": 0.1, "unit": "nM"},
      {"measurement": "detection of [^3H]RTX binding", "setting": "substantia nigra", "value": "very difficult"},
      {"measurement": "detection of [^3H]RTX binding", "setting": "striatum", "value": "very difficult"},
      {"measurement": "binding in DRG from chickens", "setting": "[4]", "value": "not detected"}
    ]}
  ]
}
